Reference: patent US6413999B1, “Treatment for acute physical insult to the central nervous system” (University of Saskatchewan Technologies Inc., priority 1999, dated 2002)

Key:
Type in all cases: in vivo, rat
[1] = system: rats with acute physical insult to the CNS; experiment: Inflammation (observation, ICAM-1 and iNOS levels) following insult; settings: OTC following insult, compared to saline-treated controls
Protocol: Inflammation was assessed by observation and by measurement of ICAM-1 and iNOS levels. A significant increase in inflammation was observed following insult.

[2] = system: Wistar rats with clip compression injury at the T6 spinal cord level; experiment: Spinal cord protein carbonyl content after clip compression injury at T6; settings: 24 hours post-trauma; T5 (P<0.05), T6, T7 (P<0.01), T9 (P<0.05) versus saline; FIG. 3
Protocol: (§1) Adult male Wistar rats (˜320 g) were obtained from Charles River Canada and housed in a temperature-regulated animal facility, exposed to a 12 hour light/dark cycle and had free access to food and water. Animals were treated in accordance with the guidelines of the Canadian Council on Animal Care. Prior in surgery, the rats received the analgesic Buprenorphine-hydrochloride subcutaneously at a dose of 0.05 mg/kg and then every 12 hours for the first 72 hours following surgery. Anesthesia was performed with Halothane (5% induction and 1% maintenance). Laminectomy was performed aseptically at T5-T6 to expose the spinal cord. […]
(§2) A total of 54 animals were used to determine the onset of oxidative stress following insult. […] Spinal cord segments were frozen in liquid nitrogen and stored at −80° C. until analyzed.
Protein carbonyl content was determined spectrophotometrically using 2,4-dinitrophenylhydrazine (DNPH) to trap carbonyls with the adduct formed measured at 360 nm. Results are expressed as pmoles of DNPH incorporated per mg of protein calculated using a molar absorption coefficient of 22,000 M^−1 cm^−1 for aliphatic hydrazones.

[3] = system: Wistar rats with clip compression injury at the T6 spinal cord level; experiment: Spinal cord histomorphometry (luxol fast blue white matter) 6 weeks after injury
Protocol: as §1
Following 6 weeks of behavioral evaluation, the spinal cords were fixed by transcardial perfusion with 0.03M phosphate-buffered saline (pH 7.4) containing 1% sodium nitrite in rats anesthetized with Halothane, followed by perfusion (100 ml/100 g) with either 4% formaldehyde (freshly prepared from paraformaldehyde) or FAM solution (formaldehyde, acetic acid and methanol in 1:1:8 ratio) and left in the same fixative for 5 days. […] Area of white matter was quantified using Northern Eclipse™ software and expressed in pixels.

[4] = Body weight after spinal cord clip compression injury; settings: T6 clip compression; OTC 12 mmoles/kg i.p. 30 min after injury, then 4 mmoles/kg every 12 h for five days; pre-surgery 328.3±4.2 g; saline 403.9±9.5 g; P=0.0337
Protocol: Adult male Wistar rats (˜320 g) were obtained from Charles River Canada and housed in a temperature-regulated animal facility, exposed to a 12 hour light/dark cycle and had free access to food and water. Animals were treated in accordance with the guidelines of the Canadian Council on Animal Care. Prior in surgery, the rats received the analgesic Buprenorphine-hydrochloride subcutaneously at a dose of 0.05 mg/kg and then every 12 hours for the first 72 hours following surgery. Anesthesia was performed with Halothane (5% induction and 1% maintenance). Laminectomy was performed aseptically at T5-T6 to expose the spinal cord. A 5-second clip compression injury was induced at the T6 spinal cord level using a modified Kerr-Lougheed aneurysm clip with a calibrated force of 50 g as described in Rivlin et al. (Surg. Neurol., 9, 39-43, 1979) and Khan et al. (Can. J. Neurol. Sci., 10, 161-165, 1983). For delivery of drug or saline vehicle a sterile catheter was placed subcutaneously running from the dorsum to enter the peritoneal cavity ventrally; this was done before the laminectomy was performed. Thirty minutes following spinal cord compression an initial dose of OTC or phosphate-buffered saline vehicle (“saline”) was delivered intraperitoneally and then subsequent doses were administered every 12 hours for the next five days. […]

[5] = system: rats with unilateral carotid artery ligation and 12% oxygen atmosphere; experiment: Vascular event model (unilateral carotid artery ligation plus 12% oxygen): brain damage and GSH
Protocol: Nine to eleven week old rats were obtained and housed as described in Example 1A. Animals were treated in accordance with the guidelines of the Canadian Council on Animal Care.
The rats were randomly divided into two groups. Both groups of rats underwent unilateral carotid artery ligation and were then subjected to a 12% oxygen atmosphere for 35 minutes. Fifteen minutes after insult, rats of one group received an initial dose of OTC (12 mmoles/kg body weight) and rats of the other group receive the phosphate-buffered saline vehicle (“saline”). Rats received subsequent doses of OTC (4 mmoles/kg body weight) or saline, as appropriate, every 12 hours for 3 days.
Rats were sacrificed 1 week following insult and brain damage was assessed.
Brain damage following a vascular event was assessed using the method of Thornhill, et al. (Brain Res. 825(1-2):36-45 (1999).

[6] = system: Wistar rats with clip compression injury at the T6 spinal cord level; experiment: Spinal cord GSH content after 50 g clip compression injury at T6; settings: 26 hours following injury and 2 hours following OTC administration; versus saline P=0.0033; FIG. 4
Protocol: (§3) Adult male Wistar rats (˜320 g) were obtained from Charles River Canada and housed in a temperature-regulated animal facility, exposed to a 12 hour light/dark cycle and had free access to food and water. Animals were treated in accordance with the guidelines of the Canadian Council on Animal Care. Prior in surgery, the rats received the analgesic Buprenorphine-hydrochloride subcutaneously at a dose of 0.05 mg/kg and then every 12 hours for the first 72 hours following surgery. Anesthesia was performed with Halothane (5% induction and 1% maintenance). Laminectomy was performed aseptically at T5-T6 to expose the spinal cord. A 5-second clip compression injury was induced at the T6 spinal cord level using a modified Kerr-Lougheed aneurysm clip with a calibrated force of 50 g as described in Rivlin et al. (Surg. Neurol., 9, 39-43, 1979) and Khan et al. (Can. J. Neurol. Sci., 10, 161-165, 1983). […]
as §2
GSH was measured using 5,5′-dithio-bis(2-nitrobenzoic) acid-derivatization (“DTNB”) followed by HPLC and UV detection. […] The homogenates were centrifuged at 10,000 g for 15 min and supernatants collected, derivatized and analyzed using the Shimadzu reversed-phase HPLC with ultraviolet detection. […]

[7] = system: Wistar rats with clip compression injury at the T6 spinal cord level; experiment: Functional recovery after spinal cord compression (angleboard, modified Tarlov score, BBB scale)
Protocol: as §1
A semiquantitative assessment of hindlimb function during open field walking gas performed using the modified Tarlov score (Tariq et al.). Spontaneous activity of hind limb was scored as follows: 0=total paraplegia of hindlimbs; 1=no spontaneous movements but responds to hindlimb pinch; 2=spontaneous movement; 3=able to support weight but unable to walk; 4=walks with gross deficit; 5=walks with mild deficit on broad flat surface, 6=able to walk on broad flat surface and support weight on a 1.8 cm wide ledge; 7=walks on ledge. […]

[8] = system: Wistar rats with clip compression injury at the T6 spinal cord level; experiment: Spinal cord glutathione reductase activity after clip compression injury at T6; settings: 24 hours following spinal cord injury; T5 (P<0.05), T6, T7, T9 (P<0.01) versus saline vehicle; FIG. 2
Protocol: as §3, §2
Glutathione reductase was calculated by measuring the disappearance of NADPH (SIGMA (trade-mark)) in the presence of oxidized-glutathione based upon the procedure described by Eklow et al. (Eur. J. Biochem. 138, 459-463 (1984)), as applied in Juurlink et al (Glia 22, 371-378, 1998)).

## O=C1N[C@H](C(=O)O)CS1 [OTC, L-2-oxothiazolidine-4-carboxylate]
[1]
  levels of inflammation (ICAM-1 and iNOS): lower levels of inflammation
[2]
  protein carbonyl content in spinal cord: significantly decreased protein carbonyl formation
[3]
  grey matter sparing at T6: did not result in grey matter sparing
[4]
  weight of animals 6 weeks after surgery: 434.3 ± 9.3 g
[5]; 1 week following insult, OTC 12 mmoles/kg 15 min after insult, then 4 mmoles/kg every 12 h for 3 days, saline score 2.67, FIG. 9
  brain damage score: 1.86
[5]; insult by a vascular event, compared to saline-treated animals
  concentrations of GSH in the affected CNS regions: higher concentrations of GSH
[6]
  GSH levels in the affected CNS region: increased GSH levels
[7]; 6 weeks after trauma, scale 0-7, after trauma 1, saline 2.4, FIG. 8a
  modified Tarlov score: 4.1
[7]; 6 weeks recovery, before insult 59°, after insult 28°, saline 32°, FIG. 7
  angleboard capacity angle: 42 °
[8]
  glutathione reductase activity in spinal cord: significantly inhibited the decrease in glutathione reductase activity
